Measurements from patent publication US20020173541A1, “Arthropod-controlling composition” (SUMITOMO CHEMICAL COMPANY, LIMITED, priority 2001, published 2002).

Tested on: adult German cockroaches
Assay: Knock-down test: oil solution sprayed on adult German cockroaches
Format: in vivo, Blattella germanica (German cockroach)
Procedure: According to Production example 7, each of the 0.5% oil solutions of The Pyrone Compound and Reference compound 1 was prepared. A square of paper (side: 20 cm) was covered on the iron net set on the bottom of the metallic chamber (46 cm×46 cm, 70 cm in height). A container (8.75 cm in diameter, 7.5 cm in height, having 16-mesh net at the bottom and spreading butter on the wall for preventing escape) was set on the paper. In the container, ten (5 males and 5 females) adult German cockroaches were released. By means of spray gun, 1.5 ml of the above oil solution was applied to the test insects at pressure of 4.1×10^4 Pa from the upper part of the chamber. The container was taken out of the chamber 30 seconds after spraying and the test insects were transferred to a plastic cup. Two minutes after spraying, the knocked-down cockroaches were counted. According to Production example 7, each of the 0.25% oil solutions of The Pyrone Compound and Reference compounds 2 and 3 was prepared. The same procedures as Test Example 1 gave the knock-down percentages and KT50 values (minutes for knocked-down 50% of cockroaches) in Table 2.

[1] = 0.5% oil solution, 1.5 ml sprayed, knocked-down cockroaches counted two minutes after spraying
[2] = 0.25% oil solution, same procedures as Test Example 1, average of 6 (The Pyrone Compound) or 3 (references) repetitions

SMILES	Knock-down percentage (%) [1] [%]	KT50 (minutes for knocked-down 50% of cockroaches) [2]	Knock-down percentage (%) [2] [%]
Cc1cc(O)c(C(=O)C(C)C)c(=O)o1 [Reference compound 1, 4-hydroxy-6-methyl-3-(2-methylpropanoyl)-2-pyrone]	10		
CCC(CC)C(=O)c1c(O)cc(C)oc1=O [Reference compound 2, 4-hydroxy-6-methyl-3-(2-ethylbutanoyl)-2-pyrone]		more than 10 minutes	0
Cc1cc(O)c(C(=O)C2CC2)c(=O)o1 [Reference compound 3, 4-hydroxy-6-methyl-3-(cyclopropanecarbonyl) -2-pyrone]		more than 10 minutes	6.7
Cc1cc(O)c(C(=O)CC(C)C)c(=O)o1 [The Pyrone Compound, 4-hydroxy-6-methyl-3-(3-methylbutanoyl)-2-pyrone]	100	0.85 min	95
